According to patent US12390626B2, “Method of producing substances with supersaturated gas, transdermal delivery device thereof, and uses thereof” (Circularity Healthcare, LLC, priority 2012, dated 2025):
Values joined by “and” are separate entries in the source; they are usually repeats but may differ in a detail not shown here. Identical values can stand only once.

Columns and labels:
[1] = system: individuals; assay: Measurement of blood flow: Skin Perfusion Pressure (SensiLase System, laser Doppler) on right toe after transdermal CO2 vapor treatment of left thumb; format: in vivo, human; conditions: for SPP: right toe
Experimental: (§1) The treatment was administered by having an individual insert the left thumb into the open-ended delivery outlet of a device disclosed herein creating a seal. The digit will be “bathed” for five minutes with a vapor including supersaturated dissolved molecular carbon dioxide from a canister providing pure, medical-grade carbon dioxide. Nine individuals were examined.
Tissue perfusion in distal arteries was accessed using a SensiLase System (a FDA-cleared device) and measuring Skin Perfusion Pressure (SPP) and Pulse Volume Recording (PVR). SPP is a pressure measurement in mmHg that assess local blood perfusion in capillaries using a laser Doppler to measure reactive hyperemia, which reflects microcirculation for distal arterial blood flow. PVR is a measurement of plethysmography to assess changes in arterial blood volume. A change in capillary blood flow (CBF) is calculated by determining the change in SPP values over time. For this study, the CBF values of all post-treatment measurements were calculated by dividing the post-treatment SPP value by the pre-treatment SPP value. A measurement of SPP was performed on the individual's right toe at six time points 1) 5 minutes before treatment (pre-treatment); 2) 5 minutes post-treatment; 3) 30 minutes post-treatment; 4) 60 minutes post-treatment; 5) 120 minutes post-treatment; and 6) 240 minutes post-treatment.

[2] = system: individuals; assay: Measurement of blood pressure: brachial diastolic and systolic, right upper arm, after transdermal CO2 vapor treatment; format: in vivo, human; set-up: Brachial Systolic / Brachial Diastolic: unit not given here; conditions: for Brachial Diastolic Percent / Brachial Systolic Percent: percent of pre-treatment; for Brachial Diastolic Percent / Brachial Systolic Percent / Brachial Diastolic / Brachial Systolic: per patient
Experimental: as §1
To conduct this study, individuals from the study described in Example 1 had there blood pressure taken. A measurement of both brachial diastolic blood pressure and systolic blood pressure was performed on the individual's right upper arm at six time points 1) 5 minutes before treatment (pre-treatment); 2) 5 minutes post-treatment; 3) 30 minutes post-treatment; 4) 60 minutes post-treatment; 5) 120 minutes post-treatment; and 6) 240 minutes post-treatment.

[3] = nine individuals, 5-240 min post-treatment
[4] = seven of the nine individuals studied
[5] = Post Treatment (5 min), right upper arm

O=C=O [molecular carbon dioxide, carbon dioxide]
CBF ([1]; Post Treatment (5 min), post-treatment SPP / pre-treatment SPP, per patient): 124% and 104% and 102% and 87% and 117% and 122% and 109% and 113% and 114% | SPP ([1]; Post Treatment (5 min), one value per patient (1-9), 5 min vapor on left thumb): 52 mmHg and 85 mmHg and 84 mmHg and 60 mmHg and 75 mmHg and 89 mmHg and 116 mmHg and 71 mmHg and 132 mmHg | CBF ([1]; Post Treatment (30 min), post/pre-treatment SPP, per patient): 124% and 112% and 109% and 91% and 119% and 92% and 106% and 114% | SPP ([1]; Post Treatment (30 min), per patient): 54 mmHg and 0 mmHg and 92 mmHg and 75 mmHg and 58 mmHg and 87 mmHg and 97 mmHg and 67 mmHg and 142 mmHg | CBF ([1]; Post Treatment (60 min), post/pre-treatment SPP, per patient): 124% (2×) and 102% and 104% and 112% and 84% and 103% and 114% and 134% | SPP ([1]; Post Treatment (60 min), per patient): 54 mmHg (2×) and 84 mmHg and 85 mmHg and 77 mmHg and 75 mmHg and 131 mmHg and 72 mmHg and 156 mmHg | CBF ([1]; Post Treatment (120 min), post/pre-treatment SPP, per patient): 138% and 135% and 109% and 112% and 125% and 129% and 82% and 106% and 119% | SPP ([1]; Post Treatment (120 min), per patient): 58 mmHg and 111 mmHg and 89 mmHg and 77 mmHg and 80 mmHg and 94 mmHg and 87 mmHg and 67 mmHg and 138 mmHg | CBF ([1]; Post Treatment (240 min), post/pre-treatment SPP, per patient): 110% and 120% and 135% and 46% and 95% and 104% and 82% and 103% and 115% | SPP ([1]; Post Treatment (240 min), per patient): 46 mmHg and 98 mmHg and 111 mmHg and 32 mmHg and 61 mmHg and 76 mmHg and 91 mmHg and 65 mmHg and 133 mmHg | increase in capillary blood flow ([1]; four of these (of the seven of nine individuals)): ≥ 35% | effect on blood flow [1, 3]: increases blood flow in all individuals examined at some point during the time period measured | increase in capillary blood flow over baseline [1, 4]: about 25% | duration of increase in capillary blood flow ([1]; six of the nine patients): sustained increases in capillary blood flow over the course of the entire 240 minute study | Brachial Diastolic Percent ([2]; Post Treatment (5 min)): 98% and 100% and 77% (2×) and 113% and 80% (2×) and 89% and 111% | Brachial Systolic Percent ([2]; Post Treatment (5 min)): 92% (2×) and 94% (2×) and 95% and 79% and 98% and 73% and 80% | Brachial Diastolic [2, 5]: 78 and 68 (3×) and 60 (2×) and 72 (2×) and 80 | Brachial Systolic [2, 5]: 110 (2×) and 132 and 104 and 98 and 124 and 101 and 112 (2×) | Brachial Diastolic ([2]; Post Treatment (30 min)): 70 (3×) and 58 and 62 and 78 and 80 and 52 | Brachial Systolic ([2]; Post Treatment (30 min)): 110 and 98 and 100 and 112 (2×) and 118 (3×) | Brachial Diastolic Percent ([2]; Post Treatment (30 min)): 88% and 73% and 103% and 87% (2×) and 100% and 67% and 92% | Brachial Systolic Percent ([2]; Post Treatment (30 min)): 92% and 89% and 96% and 80% and 94% and 81% and 84% and 97% | Brachial Diastolic ([2]; Post Treatment (60 min)): 82 and 70 and 78 (2×) and 60 and 68 and 50 and 72 and 62 | Brachial Systolic ([2]; Post Treatment (60 min)): 138 and 118 (2×) and 115 and 150 and 106 and 110 (2×) and 128 | Brachial Diastolic Percent ([2]; Post Treatment (60 min)): 108% and 97% and 98% and 88% and 87% (2×) and 83% and 90% and 79% | Brachial Systolic Percent ([2]; Post Treatment (60 min)): 99% and 97% and 96% (2×) and 107% and 106% and 79% and 102% and 86% | Brachial Diastolic ([2]; Post Treatment (120 min)): 68 (2×) and 70 (2×) and 60 and 49 and 62 and 65 and 69 | Brachial Systolic ([2]; Post Treatment (120 min)): 120 and 128 and 90 and 127 and 102 and 110 and 111 and 116 and 118 | Brachial Diastolic Percent ([2]; Post Treatment (120 min)): 89% and 97% and 75% and 72% (2×) and 79% and 117% and 86% and 87% | Brachial Systolic Percent ([2]; Post Treatment (120 min)): 86% (2×) and 105% and 75% and 91% and 93% and 106% and 79% and 92% | Brachial Diastolic ([2]; Post Treatment (240 min)): 70 and 64 and 59 and 80 and 68 and 58 and 62 and 71 and 69 | Brachial Systolic ([2]; Post Treatment (240 min)): 118 (2×) and 108 (2×) and 113 and 140 and 112 (2×) and 117 | Brachial Diastolic Percent ([2]; Post Treatment (240 min)): 92% and 89% (2×) and 74% and 118% and 87% and 97% and 69% and 88% | Brachial Systolic Percent ([2]; Post Treatment (240 min)): 84% and 89% and 94% (2×) and 100% and 102% and 104% and 80% and 85% | effect on blood pressure [2, 3]: decreased blood pressure in all individuals examined at some point during the time period measured | duration of decrease in diastolic and systolic blood pressure [2, 4]: decreased diastolic and systolic blood pressure over the course of the entire 240 minute study
